Laboratory results published in patent publication US11547767B2, “99mTc-EDDA/HYNIC-iPSMA as a radiopharmaceutical for detecting the overexpression of prostate-specific membrane antigen” (INSTITUTO NACIONAL DE INVESTIGACIONES NUCLEARES, priority 2016, dated 2023).

Legend:
[1] = human, in vivo
From the text: (§1) This image confirms, and is the main evidence, that because of its increased properties of affinity owing to the lipophilicity of the incorporated HYNIC molecule, ^99mTc-EDDA/HYNIC-iPSMA is able to equal the high imaging sensitivity of the PET radionuclides in the detection of tumoral lesions that overexpress PSMA.

[2] = assay type: physicochemical
Method: HYNIC-iPSMA (37.5 μg) was formulated as a lyophilized dosage form containing 10 mg of EDDA, 20 mg of tricine, 20 μg of stannous chloride and 50 mg of mannitol. This formulation, on being reconstituted with 1 mL of 0.2 M phosphate buffer solution, pH 7 and 1 mL of solution of sodium pertechnetate (^99mTcO4Na), obtained in situ from a generator of ^99Mo/^99mTc, produces the compound to be patented ^99mTc-EDDA/HYNIC-iPSMA (FIG. 1) with radiochemical purity greater than 98% determined by reverse-phase HPLC, which has the corresponding radiochromatogram (FIG. 3).
(§2) The radiopharmaceutical remains stable with radiochemical purity greater than 95%, 24 h after labeling. In-vitro tests of stability in human serum show binding to serum proteins of 8.3±2.1% and high radiochemical stability (>90%).

[3] = assay type: in vitro ADME, human
Method: as §2

LNCaP tumors = tested on: LNCaP tumors; set-up: species or system mice; settings: mouse, in vivo
From the text: as §1

[4] = molecular target: T1, PSMA overexpressed in prostate cancer cells (Homo sapiens, UniProt Q04609); test: SPECT/PET imaging in patients with prostate cancer; assay type: in vivo; settings: for detection of tumors and metastases (PET and SPECT image, FIG. 6): same patient with advanced metastatic prostate cancer given both radiopharmaceuticals
T1 construct: detect in vivo PSMA overexpressed in prostate cancer cells; from tissue; host or cells: tumours and metastases in prostate cancer patients (in vivo SPECT/PET)
T1 sequence (Q04609 whole entry): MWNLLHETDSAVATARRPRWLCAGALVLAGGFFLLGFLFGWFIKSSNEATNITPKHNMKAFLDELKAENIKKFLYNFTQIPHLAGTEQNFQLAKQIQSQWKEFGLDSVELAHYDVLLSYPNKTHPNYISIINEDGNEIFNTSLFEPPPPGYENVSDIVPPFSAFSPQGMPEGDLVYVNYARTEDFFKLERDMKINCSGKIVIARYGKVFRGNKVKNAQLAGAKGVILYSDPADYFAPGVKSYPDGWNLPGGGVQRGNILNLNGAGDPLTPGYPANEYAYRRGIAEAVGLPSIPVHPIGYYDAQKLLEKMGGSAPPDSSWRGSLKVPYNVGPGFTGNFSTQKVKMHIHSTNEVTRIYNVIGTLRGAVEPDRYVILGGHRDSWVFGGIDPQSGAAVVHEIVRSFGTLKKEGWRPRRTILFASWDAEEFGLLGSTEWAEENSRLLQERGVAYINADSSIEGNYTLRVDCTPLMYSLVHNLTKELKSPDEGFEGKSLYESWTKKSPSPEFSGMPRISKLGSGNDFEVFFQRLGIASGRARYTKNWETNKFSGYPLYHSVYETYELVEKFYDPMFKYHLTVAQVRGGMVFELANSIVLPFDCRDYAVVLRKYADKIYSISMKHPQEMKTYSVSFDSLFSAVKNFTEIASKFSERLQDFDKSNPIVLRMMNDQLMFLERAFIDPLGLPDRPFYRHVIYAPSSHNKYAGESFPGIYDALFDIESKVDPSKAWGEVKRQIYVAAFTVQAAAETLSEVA
From the text: as §1

balb-C laboratory mice = test: toxicity in balb-C laboratory mice; assay type: in vivo; settings: dose of 40 mg/kg
From the text: as §1

[5] = molecular target: T2, PSMA protein (LNCaP cells) (Homo sapiens, UniProt Q04609); test: affinity by studies of competence in PSMA-positive cancer cells (LNCaP); assay type: binding; settings: competition in LNCaP cells
T2 construct: endogenous in cells; host or cells: LNCaP
T2 sequence (Q04609 whole entry): as above

Row | mean effective dose [1] | radiochemical purity 24 h after labeling (stability) [2] | radiochemical stability in human serum [3] | capture in the tumors (LNCaP tumors) | Molecule | biokinetics (clearance and organ capture) [1] | route of elimination (LNCaP tumors) | ability to detect in vivo overexpressed PSMA (SPECT image, FIG. 5) ([4]; patient with prostate cancer) | detection of tumors and metastases (PET and SPECT image, FIG. 6) [4] | toxicity or adverse effects (balb-C laboratory mice) | IC50 [5]
1 | 4±2 mSv | greater than 95% | > 90% | 8.7±1.3 % ID/g | 99mTc-ethylenediaminediacetic acid/hydrazinonicotinamide-inhibitor of prostate-specific membrane antigen [99mTc-EDDA/HYNIC-iPSMA] | rapid clearance from the blood with greater capture and renal excretion, lower hepatic capture and high capture in the parathyroid, salivary and lacrimal glands | mainly with elimination by the renal route | confirming the ability of the radiopharmaceutical to detect in vivo PSMA overexpressed in prostate cancer cells | detect tumors and metastases of prostate cancer with high sensitivity |  | 
2 |  |  |  |  | O=C([O-])CN1CCN(CC(=O)[O-])CCN(CC(=O)NC[C@H]2CC[C@H](C(=O)N[C@@H](Cc3ccc4ccccc4c3)C(=O)NCCCC[C@H](NC(=O)N[C@@H](CCC(=O)O)C(=O)O)C(=O)O)CC2)CCN(CC(=O)[O-])CC1.[68Ga+3] [68Ga-PSMA-617, reference compound] |  |  |  | detect tumors and metastases of prostate cancer with high sensitivity |  | 
3 |  |  |  |  | NNc1ccc(C(=O)N[C@@H](Cc2ccc3ccccc3c2)C(=O)NCCCC[C@H](NC(=O)N[C@@H](CCC(=O)O)C(=O)O)C(=O)O)cn1 [HYNIC-iPSMA, Glu-NH—CO—NH-Lys(β-naphthyl alanine)-HYNIC] |  |  |  |  | did not display toxicity or adverse effects | 2.9 ± 0.7 nM
